In the CheMixHub viscosity set:
± gives the uncertainty stated by the source.

Test: xn = mol fraction of the nth substance listed

CCCCN(CCCC)CCCC + CC(C)O
viscosity [mPa·s], 101.33 kPa
Settings	298.15 K	303.15 K	308.15 K	313.15 K	318.15 K	323.15 K
x1 = 0.0562	1.977 ± 0.12	–	1.524 ± 0.092	–	1.172 ± 0.071	–
x1 = 0.1016	–	1.679 ± 0.1	–	1.292 ± 0.078	–	1.009 ± 0.061
x1 = 0.1175	1.876 ± 0.11	–	1.46 ± 0.088	–	1.132 ± 0.068	–
x1 = 0.1477	–	1.619 ± 0.098	–	1.256 ± 0.076	–	0.988 ± 0.06
x1 = 0.1499	1.827 ± 0.11	–	1.429 ± 0.086	–	1.113 ± 0.067	–
x1 = 0.1897	1.772 ± 0.11	–	1.394 ± 0.084	–	1.092 ± 0.066	–
x1 = 0.1953	–	1.562 ± 0.094	–	1.223 ± 0.074	–	0.968 ± 0.059
x1 = 0.224	1.728 ± 0.1	–	1.367 ± 0.083	–	1.075 ± 0.065	–
x1 = 0.2585	–	1.496 ± 0.09	–	1.185 ± 0.072	–	0.945 ± 0.057
x1 = 0.2648	1.681 ± 0.1	–	1.338 ± 0.081	–	1.057 ± 0.064	–
x1 = 0.3035	1.641 ± 0.099	–	1.313 ± 0.079	–	1.041 ± 0.063	–
x1 = 0.3076	–	1.452 ± 0.088	–	1.16 ± 0.07	–	0.93 ± 0.056
x1 = 0.3493	1.6 ± 0.097	–	1.287 ± 0.078	–	1.024 ± 0.062	–
x1 = 0.3539	–	1.415 ± 0.086	–	1.139 ± 0.069	–	0.918 ± 0.055
x1 = 0.404	1.559 ± 0.094	–	1.26 ± 0.076	–	1.007 ± 0.061	–
x1 = 0.4061	–	1.379 ± 0.083	–	1.118 ± 0.068	–	0.906 ± 0.055
x1 = 0.4528	1.528 ± 0.092	1.351 ± 0.082	1.24 ± 0.075	1.101 ± 0.067	0.994 ± 0.06	0.898 ± 0.054
x1 = 0.4899	1.508 ± 0.091	–	1.226 ± 0.074	–	0.985 ± 0.06	–
x1 = 0.5047	–	1.324 ± 0.08	–	1.086 ± 0.066	–	0.889 ± 0.054
x1 = 0.5476	–	1.304 ± 0.079	–	1.073 ± 0.065	–	0.884 ± 0.053
x1 = 0.5541	1.479 ± 0.089	–	1.206 ± 0.073	–	0.972 ± 0.059	–
x1 = 0.604	1.46 ± 0.088	–	1.192 ± 0.072	–	0.962 ± 0.058	–
x1 = 0.611	–	1.278 ± 0.077	–	1.059 ± 0.064	–	0.876 ± 0.053
x1 = 0.6925	1.434 ± 0.087	–	1.172 ± 0.071	–	0.948 ± 0.057	–
x1 = 0.7023	–	1.247 ± 0.075	–	1.042 ± 0.063	–	0.866 ± 0.052
x1 = 0.7872	–	1.221 ± 0.074	–	1.027 ± 0.062	–	0.859 ± 0.052
x1 = 0.8457	1.399 ± 0.085	–	1.145 ± 0.069	–	0.927 ± 0.056	–
x1 = 0.9375	–	1.181 ± 0.071	–	1.004 ± 0.061	–	0.848 ± 0.051
x1 = 0.9696	–	1.173 ± 0.071	–	0.999 ± 0.06	–	0.847 ± 0.051

CCCCN(CCCC)CCCC + CCCO
viscosity [mPa·s]
Settings	298.15 K	303.15 K	308.15 K	313.15 K	318.15 K	323.15 K
101.3 kPa, x1 = 0.0929	–	1.75 ± 0.021	–	1.364 ± 0.017	–	–
101.3 kPa, x1 = 0.1877	–	1.712 ± 0.02	–	1.328 ± 0.016	–	–
101.3 kPa, x1 = 0.2897	–	–	–	1.289 ± 0.016	–	–
101.3 kPa, x1 = 0.3991	–	1.605 ± 0.019	–	1.245 ± 0.015	–	–
101.3 kPa, x1 = 0.5176	–	1.529 ± 0.018	–	–	–	–
101.3 kPa, x1 = 0.616	–	1.462 ± 0.017	–	–	–	–
101.3 kPa, x1 = 0.7064	–	1.392 ± 0.017	–	–	–	–
101.3 kPa, x1 = 0.8055	–	1.307 ± 0.016	–	–	–	–
101.3 kPa, x1 = 0.8864	–	1.252 ± 0.015	–	–	–	–
101.33 kPa, x1 = 0.0994	–	–	–	1.412 ± 0.085	–	1.318 ± 0.08
101.33 kPa, x1 = 0.1089	1.974 ± 0.12	–	1.622 ± 0.098	–	1.465 ± 0.089	–
101.33 kPa, x1 = 0.1447	–	1.7 ± 0.1	–	1.398 ± 0.085	–	1.343 ± 0.081
101.33 kPa, x1 = 0.1916	–	–	–	1.375 ± 0.083	–	1.342 ± 0.081
101.33 kPa, x1 = 0.2045	1.895 ± 0.12	–	1.558 ± 0.094	–	1.436 ± 0.087	–
101.33 kPa, x1 = 0.2539	1.845 ± 0.11	1.603 ± 0.097	1.519 ± 0.092	1.34 ± 0.081	1.403 ± 0.085	1.315 ± 0.079
101.33 kPa, x1 = 0.3026	1.795 ± 0.11	1.558 ± 0.094	1.481 ± 0.09	1.308 ± 0.079	1.366 ± 0.083	1.283 ± 0.078
101.33 kPa, x1 = 0.3485	–	1.517 ± 0.092	–	1.277 ± 0.077	–	1.247 ± 0.075
101.33 kPa, x1 = 0.3584	1.739 ± 0.11	–	1.437 ± 0.087	–	1.32 ± 0.08	–
101.33 kPa, x1 = 0.4003	1.7 ± 0.1	1.473 ± 0.089	1.407 ± 0.085	1.244 ± 0.075	1.286 ± 0.078	1.206 ± 0.073
101.33 kPa, x1 = 0.4469	1.66 ± 0.1	1.436 ± 0.087	1.375 ± 0.083	1.216 ± 0.074	1.249 ± 0.076	1.17 ± 0.071
101.33 kPa, x1 = 0.4987	1.619 ± 0.098	1.4 ± 0.085	1.342 ± 0.081	1.187 ± 0.072	1.211 ± 0.073	1.133 ± 0.068
101.33 kPa, x1 = 0.5417	–	1.372 ± 0.083	–	1.165 ± 0.07	–	1.104 ± 0.067
101.33 kPa, x1 = 0.5569	1.58 ± 0.096	–	1.309 ± 0.079	–	1.171 ± 0.071	–
101.33 kPa, x1 = 0.6053	1.551 ± 0.094	1.335 ± 0.081	1.284 ± 0.078	1.136 ± 0.069	1.14 ± 0.069	1.065 ± 0.064
101.33 kPa, x1 = 0.6587	1.523 ± 0.092	–	1.259 ± 0.076	–	1.108 ± 0.067	–
101.33 kPa, x1 = 0.6973	1.504 ± 0.091	1.289 ± 0.078	1.242 ± 0.075	1.098 ± 0.066	1.085 ± 0.066	1.012 ± 0.061
101.33 kPa, x1 = 0.7606	1.474 ± 0.089	–	1.216 ± 0.074	–	1.047 ± 0.063	–
101.33 kPa, x1 = 0.7832	–	1.251 ± 0.076	–	1.066 ± 0.064	–	0.962 ± 0.058
101.33 kPa, x1 = 0.8067	1.454 ± 0.088	–	1.197 ± 0.072	–	1.02 ± 0.062	–
101.33 kPa, x1 = 0.9104	1.409 ± 0.085	–	1.156 ± 0.07	–	0.959 ± 0.058	–
101.33 kPa, x1 = 0.9361	–	1.189 ± 0.072	–	1.013 ± 0.061	–	0.873 ± 0.053
101.33 kPa, x1 = 0.9688	–	1.177 ± 0.071	–	1.004 ± 0.061	–	0.858 ± 0.052
